From PubChem BioAssay AID2060510 (Molecular Pharmacology Branch, DTP, NCI, 2025)
Values belong to the compound of their own block, whether it stands above or below them.

Test system: 439559-082-T-J2-PDC spheroids viability
Test: Anticancer human tumor 439559-082-T-J2-PDC patient-derived colon adenocarcinoma cell line growth inhibition [GQUAD]
Details: for IC50: curve of first compound; for viability, T/C: stronger effect = lower value
In short: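 Viability of tumor cells grown as complex spheroids with endothelial and stromal cells, exposed to drug combinations. Top concentration at or near clinical Cmax (else 10 microM), diluted in half-log increments.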

[1] = second compound 0.0316 µM, first compound 0.0316 µM
[2] = second compound 0.0316 µM, first compound 0.316 µM
[3] = second compound 0.1 µM, first compound 0.0316 µM
[4] = second compound 0.1 µM, first compound 0.316 µM
[5] = second compound 0.316 µM, first compound 0.0316 µM
[6] = second compound 0.316 µM, first compound 0.316 µM
[7] = second compound 1 µM, first compound 0.0316 µM
[8] = second compound 1 µM, first compound 0.316 µM
[9] = second compound 3.16 µM, first compound 0.0316 µM
[10] = second compound 3.16 µM, first compound 0.316 µM
[11] = second compound 10 µM, first compound 0.0316 µM
[12] = second compound 10 µM, first compound 0.316 µM
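Also: spheroids exposed to the agents for 7 days before readout.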
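For viability, T/C in this document: percent of luminescence signal in DMSO vehicle wells taken as 100% viability.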

- IC50 (second compound 0.0316 µM): > 316 nM
- IC50 (second compound 0.1 µM): > 316 nM
- IC50 (second compound 0.316 µM): > 316 nM
- IC50 (second compound 1 µM): > 316 nM
- IC50 (second compound 3.16 µM): > 316 nM
- IC50 (second compound 10 µM): 205 nM
Compound: Cc1[nH]c2ccccc2c1CCNCc1ccc(/C=C/C(=O)NO)cc1 + Cc1cnc(CNC(=O)c2c(=O)c3ccc(N4CCCN(C)CC4)nc3n3c2sc2ccccc23)cn1
- viability, T/C (second compound 0.0316 µM, first compound 0.000999 µM): 101%
- viability, T/C (second compound 0.0316 µM, first compound 0.00316 µM): 92.8%
- viability, T/C (second compound 0.0316 µM, first compound 0.00999 µM): 99%
- viability, T/C [1]: 90.6%
- viability, T/C (second compound 0.0316 µM, first compound 0.0999 µM): 81.7%
- viability, T/C [2]: 63.7%
- viability, T/C (second compound 0.1 µM, first compound 0.000999 µM): 104%
- viability, T/C (second compound 0.1 µM, first compound 0.00316 µM): 100%
- viability, T/C (second compound 0.1 µM, first compound 0.00999 µM): 87.5%
- viability, T/C [3]: 93.9%
- viability, T/C (second compound 0.1 µM, first compound 0.0999 µM): 85.9%
- viability, T/C [4]: 59.8%
- viability, T/C (second compound 0.316 µM, first compound 0.000999 µM): 92.7%
- viability, T/C (second compound 0.316 µM, first compound 0.00316 µM): 85.4%
- viability, T/C (second compound 0.316 µM, first compound 0.00999 µM): 89.6%
- viability, T/C [5]: 76.2%
- viability, T/C (second compound 0.316 µM, first compound 0.0999 µM): 80.8%
- viability, T/C [6]: 65.2%
- viability, T/C (second compound 1 µM, first compound 0.000999 µM): 86.8%
- viability, T/C (second compound 1 µM, first compound 0.00316 µM): 79.6%
- viability, T/C (second compound 1 µM, first compound 0.00999 µM): 80.4%
- viability, T/C [7]: 71.8%
- viability, T/C (second compound 1 µM, first compound 0.0999 µM): 83.1%
- viability, T/C [8]: 55.7%
- viability, T/C (second compound 3.16 µM, first compound 0.000999 µM): 73.4%
- viability, T/C (second compound 3.16 µM, first compound 0.00316 µM): 70.1%
- viability, T/C (second compound 3.16 µM, first compound 0.00999 µM): 81.4%
- viability, T/C [9]: 74.1%
- viability, T/C (second compound 3.16 µM, first compound 0.0999 µM): 73.7%
- viability, T/C [10]: 53.9%
- viability, T/C (second compound 10 µM, first compound 0.000999 µM): 70%
- viability, T/C (second compound 10 µM, first compound 0.00316 µM): 68.7%
- viability, T/C (second compound 10 µM, first compound 0.00999 µM): 64.2%
- viability, T/C [11]: 67%
- viability, T/C (second compound 10 µM, first compound 0.0999 µM): 67.5%
- viability, T/C [12]: 39.5%

- IC50 (second compound 0.0316 µM): 234 nM
- IC50 (second compound 0.1 µM): 213 nM
- IC50 (second compound 0.316 µM): 231 nM
- IC50 (second compound 1 µM): 174 nM
- IC50 (second compound 3.16 µM): 171 nM
- IC50 (second compound 10 µM): 153 nM
Compound: Nc1ccn(C2OC(CO)C(O)C2(F)F)c(=O)n1 (centres undefined) + Cc1cnc(CNC(=O)c2c(=O)c3ccc(N4CCCN(C)CC4)nc3n3c2sc2ccccc23)cn1
- viability, T/C [1]: 87.8%
- viability, T/C (second compound 0.0316 µM, first compound 0.1 µM): 65.9%
- viability, T/C [2]: 41.4%
- viability, T/C (second compound 0.0316 µM, first compound 1 µM): 35.3%
- viability, T/C (second compound 0.0316 µM, first compound 3.16 µM): 27.3%
- viability, T/C (second compound 0.0316 µM, first compound 10 µM): 20.8%
- viability, T/C [3]: 81.4%
- viability, T/C (second compound 0.1 µM, first compound 0.1 µM): 62.3%
- viability, T/C [4]: 43.4%
- viability, T/C (second compound 0.1 µM, first compound 1 µM): 29.8%
- viability, T/C (second compound 0.1 µM, first compound 3.16 µM): 27.8%
- viability, T/C (second compound 0.1 µM, first compound 10 µM): 18.4%
- viability, T/C [5]: 84.2%
- viability, T/C (second compound 0.316 µM, first compound 0.1 µM): 65.4%
- viability, T/C [6]: 42.9%
- viability, T/C (second compound 0.316 µM, first compound 1 µM): 31.9%
- viability, T/C (second compound 0.316 µM, first compound 3.16 µM): 25.4%
- viability, T/C (second compound 0.316 µM, first compound 10 µM): 19.2%
- viability, T/C [7]: 74.3%
- viability, T/C (second compound 1 µM, first compound 0.1 µM): 61.7%
- viability, T/C [8]: 37.4%
- viability, T/C (second compound 1 µM, first compound 1 µM): 28.8%
- viability, T/C (second compound 1 µM, first compound 3.16 µM): 26%
- viability, T/C (second compound 1 µM, first compound 10 µM): 27.3%
- viability, T/C [9]: 66.9%
- viability, T/C (second compound 3.16 µM, first compound 0.1 µM): 56.1%
- viability, T/C [10]: 43.5%
- viability, T/C (second compound 3.16 µM, first compound 1 µM): 28.3%
- viability, T/C (second compound 3.16 µM, first compound 3.16 µM): 25.7%
- viability, T/C (second compound 3.16 µM, first compound 10 µM): 19.6%
- viability, T/C [11]: 67.2%
- viability, T/C (second compound 10 µM, first compound 0.1 µM): 56.3%
- viability, T/C [12]: 39.3%
- viability, T/C (second compound 10 µM, first compound 1 µM): 29.8%
- viability, T/C (second compound 10 µM, first compound 3.16 µM): 24.6%
- viability, T/C (second compound 10 µM, first compound 10 µM): 22.6%
